Measured values as given in patent publication US7238469B2, “Carbon monoxide improves outcomes in tissue and organ transplants and suppresses apoptosis” (priority 2001, dated 2007).
Values joined by “and” are separate entries in the source; they are usually repeats but may differ in a detail not shown here. Equal entries are not always repeated. Structures can show the parent of a compound that is named as a salt. Residues, ends and D or L forms follow the SMILES beside them.

Key:
[1] = system: 2F–2B ECs; type: cell-based, murine
Protocol: The murine 2F–2B endothelial cell line (ATCC) was transiently transfected as described elsewhere (Soares et al., Nature Med. 4:1073, 1998; Brouard et al, J. Exp. Med. 192:1015, 2000). All experiments were conducted 24–48 h after transfection. é-galactosidase-transfected cells were detected as described elsewhere (Soares et al., Nature Med. 4:1073, 1998; Brouard et al., J. Exp. Med. 192:1015, 2000). Percentage of viable cells was assessed by evaluating the number of é-galactosidase-expressing cells that retained normal morphology as described elsewhere (Soares et al., Nature Med. 4:1073, 1998; Brouard et al., J. Exp. Med. 192:1015, 2000). The number of random fields counted was determined to have a minimum of 200 viable transfected cells per control well. The percentage of viable cells was normalized for each DNA preparation to the number of transfected cells counted in the absence of the apoptosis-inducing agent (100% viability). All experiments were performed at least three times in duplicate. Actinomycin D (Act. D; Sigma) was dissolved in PBS and added to the culture medium (10 îg/ml) 24 h after transfection. SnPPIX (Porphyrin Products) was dissolved (10 îM) in 100 mM NaOH and conserved at −20° C. until used. SNPPIX was added to the culture medium (50 îM) 6 h after transfection. Human recombinant TNF-α (R&D Systems, Minneapolis, Minn.) was dissolved in PBS, 1% BSA, and added to the culture medium (10–100 ng/ml) 24 h after transfection.
Cells were exposed to compressed air or varying concentration of CO (250 and 10,000 ppm), as described elsewhere (Otterbein et al., Nature Med. 6:422, 2000; and Brouard et al., J. Exp. Med. 192:1015, 2000).
BAECs and 2F–2B ECs were transiently transfected. All experiments were carried out 24–48 h after transfection. The percentage of viable cells was assessed by evaluating the number of β-galactosidase-expressing cells that retained normal morphology. The number of random fields counted was determined to have a minimum of 200 viable transfected cells per control well. The percentage of viable cells was normalized for each DNA preparation to the number of transfected cells counted in the absence of the apoptosis-inducing agent (100% viability). All experiments were performed at least three times in duplicate.
Actinomycin D (Act.D; Sigma-Aldrich) was dissolved in PBS and added to the culture medium 24 h after transfection. The Act.D concentration used corresponded to the optimal concentration necessary to sensitize ECs to TNF-α mediated apoptosis, e.g., 10 μg/ml for 2F–2B ECs and 0.1 μg/ml for BAECs. When indicated, EC apoptosis was induced by etoposide (200 μM, 8 h; Calbiochem-Novabiochem) or by serum deprivation (0.1% FCS for 24 h). The iron chelator deferoxamine mesylate (DFO; Sigma-Aldrich) was dissolved in water and added to culture medium (1–100 μM) 1 h before the induction of apoptosis. Hemoglobin (Hb; Sigma-Aldrich) was dissolved (1 mM) in PBS, 10 mM Na2S2O4, dialyzed against PBS (2 h, 4° C., 1:800 dilution), and added to the culture medium (1–100 μM) 6 h after transfection. The guanylcyclase inhibitor 1H(1,2,4)oxadiazolo(4,3)quinoxalin-1 (ODQ; Calbiochem-Novabiochem) was dissolved in DMSO (Sigma-Aldrich) and added to the culture medium (10–100 μM) 6 h after transfection. Iron protoporphyrin ([FePP]/heme), cobalt protoporphyrin (CoPPIX), and tin protoporphyrin (SnPPIX; all from Porphyrin Products, Inc.) were dissolved (10 mM) in 100 mM NaOH and held at −20° C. until use. Metalloporphyrins were added to the culture medium (50 μM) 6 h after transfection. The cGMP analogue 8-bromo-cGMP sodium salt (8-Br-cGMP; Sigma-Aldrich) was dissolved in water and added to the culture medium (10–100 µM) 30 min before the induction of apoptosis. Human recombinant TNF- (R&D Systems) was dissolved in PBS and 1% BSA, and added to the culture medium (10–100 ng/ml) 24 h after transfection.
Cells were exposed to compressed air from a compressed air tank or varying concentrations of CO (250 and 10,000 ppm).

[2] = system: islet cell grafts; experiment: Islet graft survival after induction of HO-1 by CoPP in donors and recipients; type: in vivo, mouse; details: 350–400 islets; for Rejection day: individual recipients
Protocol: Whether induction of HO-1 in donors and recipients would protect islet cell grafts was investigated. The following procedures were utilized to generate the data illustrated in Table 1, below. A mouse model was utilized for the experiments. Donors of islet cells were treated with cobalt protoporphyrin (CoPP) (20 mg/kg) once per day before islet cell isolation. Recipients of islet cell grafts were treated with CoPP (20 mg/kg) once per day on days 1, 3, 5, 7 or with CoPP (10 mg/kg) once per day on days 1, 3, 5, 7, 9, 11, 13, 15, and 17. Treatment with CoPP induces expression of heme oxygenase-1 (HO-1).
Listed under “rejection day” are the days to which islets survived. For instance, “>51×2”, means that islets in 2 recipients were still surviving after 51 days. The mean date of rejection is shown in the fourth column.

[3] = system: HO-1; experiment: Western blot of HO-1 expression in cultured endothelial cells; type: cell-based, mouse; details: data not shown
Protocol: Endothelial cells were washed in PBS (pH 7.2), harvested by scraping, and lysed in Laemmli buffer. Electrophoresis was conducted under denaturing conditions with 10% polyacrylamide gels. Proteins were transferred onto a polyvinyldifluoridine membrane (immobilon P; Millipore, Bedford, Mass.) by electroblotting and detected with rabbit polyclonal Abs directed against human HO-1 or HO-2 (StressGen, Victoria, Canada) or é-tubulin (Boehringer Mannheim, Mannheim, Germany). Proteins were visualized by using HRP-conjugated donkey anti-rabbit IgG or goat anti-mouse IgG (Pierce) and the ECL assay (Amersham Life Science, Arlington Heights, Ill.) according to manufacturer's instructions.

[4] = system: rat platelets overlaid on mouse 2F–2B endothelial cells; experiment: Platelet aggregation assay, platelets overlaid on pretreated endothelial cells; type: cell-based; details: endothelial cells pretreated with protoporphyrin 50 μM; ADP 2 μM
Protocol: Mouse 2F–2B endothelial cells were cultured on 0.2% gelatin (Sigma) coated six-well plates in 88% DMEM (Life Technologies), 10% FCS (FCS), 100 U/ml penicillin, and 100 îg/ml streptomycin (Life Technologies). Confluent endothelial cells either were left untreated or were treated with the HO-inducing agent CoPPIX (50 îM; 18 h), the HO inhibitor SnPPIX (50 îM, 18 h), or both CoPPIX (50 îM, 15 h) and SnPPIX (50 îM, 3 h). Platelet-rich plasma was obtained by centrifugation (290-g, 12 min, 19° C.) of normal rat […] in 3.8% sodium citrate. Rat platelets (3–10^8 cells ml) were resuspended in HT buffer (8.9 mM NaHCO3, 0.8 mM KH2PO, 5.6 mM dextrose, 2.8 mM KCl solution, 0.8 mM MgCl2, 129 mM NaCl, 10 mM HEPES). Platelets were overlaid (5 min; 37° C.) on mouse endothelial cells, and platelet aggregation assays were conducted as described before (Kaczmarek et al, J. Biol. Chem. 271:33116, 1996) by using an aggregometer (Chrono-Log, Harestown, Pa.) and ADP (0.5–4 μM) as an agonist.

[5] = system: βTC3 cells; experiment: TNF-α mediated apoptosis of β-gal transfected βTC3 cells (percentage of viable cells); type: cell-based, murine; details: for inhibition of TNF-α mediated apoptosis: TNF-α 24 hours, inhibitor added two hours before TNF-α (Z-DEVD-FMK 10 μM, IETD-CHO 1 μM)
Protocol: The murine insulinoma cell line βTC3 (DSMZ, Braunschweig, Germany) was cultured in Dulbecco's Modified Eagle's Medium (DMEM) (Life Technologies, Grand Island, N.Y., USA) supplemented with 2 mM L-glutamine, 100 U/ml penicillin G, 100 U/ml streptomycin and 10% Fetal Calf Serum (FCS) (Life Technologies) and incubated in humidified 5% CO2/95% air at 37° C. This murine β-cell line, derived from transgenic mice carrying a hybrid insulin-promoter simian virus 40 tumor antigen, is known to maintain the features of differentiated β-cells for about 50 passages in culture. […] Compared to other frequently used transformed β-cell lines such as RIN-m5F and HIT, levels of secreted insulin are closer to normal β-cells in the βTC3 cell line. Thus, these cells are useful for studying β-cell regulation and gene expression (D'Ambra et al., Endocrinology 726:2815–22, 1990).
βTC3 were seeded at 3×10^5 cells in 16 mm wells and transfected 15 to 20 hours later using Lipofectamine plus™ reagents (Life Technologies) according to the manufacturer's instructions. Total DNA was maintained constant using empty pcDNA3 vector. The percentage of viable cells was assessed by normalizing the percentage of viable cells of each DNA preparation to the number of control-transfected cells without the apoptotic stimulus (100% viability) (Soares et al., Nature Med. 4:1073–1077, 1998; Sato et al., J. Immunol. 166:4185–4194, 2001).
Murine recombinant TNF-α (R&D Systems) was dissolved in PBS with 1% bovine serum albumin and added to the culture medium (17.5 ng/ml=500 U) 24 hours after transfection. The caspase-3 inhibitor Z-DEVD-FMK and the caspase-8 inhibitor IETD-CHO (Calbiochem, San Diego, Calif.) were dissolved in dimethyl sulphoxide (DMSO, Sigma) and added to the culture medium (10 μM and 1 μM respectively) two hours before treatment with TNF-α. Tin protoporphyrin (SnPPIX) (Porphyrin Products, Logan, Utah) was dissolved (10 mM) in 100 mM NaOH and added 6 hours after transfection to the culture medium (50 μM). The guanylyl cyclase inhibitor 1H[1,2,4]oxadiazolo[4,3-α]quinoxalin-1 (ODQ; Calbiochem) was dissolved in DMSO and added to the culture medium (100 μM) 6 hours after transfection. The cGMP analogue 8-bromoguanosine-3′-5′-cyclic-monophosphate (8-Br-cGMP) (Sigma) was dissolved in water and added to the culture medium (10 μM) 30 minutes before induction of apoptosis. The protein kinase G inhibitor KT5823 (Calbiochem) was dissolved in DMSO and added to the culture medium (1.6 μM) 6 hours after transfection.
Cells and islets were exposed to 1% carbon monoxide in compressed air balanced with 5% CO2, as described elsewhere (see, e.g., Otterbein et al., Nature Med. 6:422–428, 2000). Islets were incubated in RPMI medium pre-saturated with carbon monoxide (4° C. overnight, 1% CO, 5% CO2) for two hours at 37° C. while treatment with 1% CO, 5% CO2 was continued.

Structure (SMILES): C=CC1=C(C)c2cc3[n-]c(cc4nc(cc5[n-]c(cc1n2)c(C)c5CCC(=O)[O-])C(CCC(=O)[O-])=C4C)c(C)c3C=C.[Co+2].[H+].[H+] [CoPP, cobalt protoporphyrin]
- effect of protoporphyrin on the antiapoptotic effect of HO-1 ([1]; HO-1 transfected ECs, protoporphyrin 50 μM): did not suppress the antiapoptotic effect of HO-1 or that of bcl-2
- Rejection day Mean ± SD ([2]; CoPP 10 mg/kg × 10): 40.5 ± 12.12 days
- Rejection/Total ([2]; CoPP 10 mg/kg × 10): 2/4
- Rejection day ([2]; CoPP 10 mg/kg × 10): > 51 days
- Rejection day Mean ± SD ([2]; CoPP 20 mg/kg × 5): 44.85 ± 17.81 days
- Rejection/Total ([2]; CoPP 20 mg/kg × 5): 4/7
- Rejection day ([2]; CoPP 20 mg/kg × 5): >58 × 2, day and >67 × 1 day
- expression of HO-1 in cultured endothelial cells [3]: up-regulated the expression of HO-1
- platelet aggregation on stimulation by ADP [4]: platelet aggregation was significantly inhibited

Structure (SMILES): CC(=O)N(O)CCCCCNC(=O)CCC(=O)N(O)CCCCCNC(=O)CCC(=O)N(O)CCCCCN [DFO, deferoxamine mesylate]
- effect on EC apoptosis when HO-1 activity was inhibited by SnPPIX or the action of CO suppressed by Hb ([1]; DFO): still able to prevent EC apoptosis
- effect on EC apoptosis under inhibition of HO activity by SnPPIX ([1]; DFO 100 μM alone): suppressed EC apoptosis, but to a lesser extent than HO-1
- effect on EC apoptosis induced by TNF-α plus Act.D ([1]; DFO 1–100 μM): suppressed

Structure (SMILES): CC[C@H](C)[C@H](NC(C)=O)C(=O)N[C@@H](CCC(=O)O)C(=O)N[C@H](C(=O)N[C@H](C=O)CC(=O)O)[C@@H](C)O [IETD-CHO] (Ac-IETD-aldehyde)
- inhibition of TNF-α mediated apoptosis [5]: 96%

Structure (SMILES): COC(=O)[C@@]1(OC)C[C@H]2O[C@]1(C)n1c3ccccc3c3c4c(c5c6ccccc6n2c5c31)C(=O)N(C)C4 [KT5823]
- effect on the anti-apoptotic effect of exogenous CO ([5]; TNF-α, 1% CO, ODQ 100 μM, KT5823 1.6 μM): suppressed the anti-apoptotic effect of exogenous carbon monoxide

Structure (SMILES): C[S+]([O-])c1ccc(-c2nc(-c3ccncc3)c(-c3ccc(F)cc3)[nH]2)cc1 (stereo not shown) [SB203580]
- effect on the antiapoptotic action of HO-1 ([1]; SB203580 10–20 μM, dose dependent): antiapoptotic action of HO-1 is suppressed

Structure (SMILES): COC(=O)CC[C@H](NC(=O)[C@H](CC(=O)OC)NC(=O)OCc1ccccc1)C(=O)N[C@H](C(=O)N[C@@H](CC(=O)OC)C(=O)CF)C(C)C [Z-DEVD-FMK]
- inhibition of TNF-α mediated apoptosis [5]: 53%
